How the values were obtained:
Type in all cases: cell-based
RKO cells = experiment: ATPlite cell viability after oxaliplatin, RKO cells in organoid culture media
Method: (§1) Advanced DMEM/F12+++ (hereinafter referred to as “Ad/DF+++”) was used to produce colorectal cancer organoids. Ad/DF+++ was refrigerated at 4° C. until use, and was used in a cold state during cell washing. Ad/DF+++ medium containing the reagents shown in Table 1 below along with Ad/DF 1× (Gibco) was prepared.
(§2) After preparing the Ad/DF+++ medium containing the above reagents, an appropriate amount of Matrigel (Corning #356231) was added so that the ratio between Matrigel and cells suspended in the Ad/DF+++ medium was 7:3. Then, the cells were plated on low attachment well plates at an appropriate density. The density and the type and number of well plates were determined according to the characteristics of each cell type. The medium was prepared according to the composition shown in Table 2 below, and the cells were cultured (expanded) until the required level was reached while the medium was replaced every 3 to 4 days.
(§3) If the organoids were expanded as needed for the experiment, the medium was carefully removed, taking care not to touch the Matrigel. The cells were separated from the Matrigel by pipetting about 20 times with 1 ml of cold Ad/DF+++. The cells in 1 to 4 wells per 6-well plate were collected in one 50 ml tube. If cells are collected from more than 4 wells into one tube, the Metrigel may not be washed properly. For this reason, the cells were placed in several tubes. […] After suspending the pellet in Ad/DF+++, the cells were counted and diluted with medium according to the required number of cells. […]
(§4) Four hours after the medium change, the cells were treated with oxaliplatin, 5-FU, Irinotecan, and folinic acid. Five days after drug treatment, intracellular ATP expression was determined using the ATPlite assay kit (PerkinElmer), and the data were expressed in terms of cell viability, IC50, and AUC.
(§5) As the standard for confirming that cells are sensitive to the drug, the response of the cells to the drug was assumed to be 100%, and the luminescence value of surviving cells after drug treatment was analyzed and compared with the quantified drug response value. […]

SW620 cells = experiment: ATPlite cell viability after oxaliplatin, SW620 cells in organoid culture media
Method: as §1, §2
If the organoids were expanded as needed for the experiment, the medium was carefully removed, taking care not to touch the Matrigel. The cells were separated from the Matrigel by pipetting about 20 times with 1 ml of cold Ad/DF+++. The cells in 1 to 4 wells per 6-well plate were collected in one 50 ml tube. If cells are collected from more than 4 wells into one tube, the Metrigel may not be washed properly. For this reason, the cells were placed in several tubes. Thereafter, Ad/DF+++ was poured to 20 to 50 ml of each tube, followed by centrifugation at 400 g for 3 minutes at 4° C. The cells were dissociated with 1 to 2 mL of TrypLE™ Express Enzyme (Gibco, 1264-013), transferred to low-attachment 24 well plates, and then treated with 10 μM of Y-27632. Next, the cells were cultured in a CO2 incubator for 5 minutes at 37° C. After pipetting about 20 times, whether the cells would be dissociated into single cells was checked by microscopic observation. If the cells were not dissociated into single cells, the culture under CO2 and pipetting processes were repeated. […] After suspending the pellet in Ad/DF+++, the cells were counted and diluted with medium according to the required number of cells. […]
as §4, §5

LS147T cells = experiment: ATPlite cell viability after oxaliplatin, LS147T cells in organoid culture media
Method: as §1, §2, §3, §4, §5

HT29 cells = experiment: ATPlite cell viability after oxaliplatin, HT29 cells in organoid culture media
Method: as §1
as §2, with “The medium was prepared according to the composition shown in Table 2 below, and the cells were cultured (expanded) until the required level was reached while the medium was replaced every 3 to 4 days.” left out
(§6) If the organoids were expanded as needed for the experiment, the medium was carefully removed, taking care not to touch the Matrigel. […] After suspending the pellet in Ad/DF+++, the cells were counted and diluted with medium according to the required number of cells. […]
as §4, with “AUC. […]” for “AUC.”

HCT15 cells = experiment: ATPlite cell viability after oxaliplatin, HCT15 cells in organoid culture media
Method: as §1
as §2, with “The medium was prepared according to the composition shown in Table 2 below, and the cells were cultured (expanded) until the required level was reached while the medium was replaced every 3 to 4 days.” left out
as §6
as §4, with “AUC. […]” for “AUC.”

CoLo205 cells = experiment: ATPlite cell viability after oxaliplatin, CoLo205 cells in organoid culture media; details: FIG. 19
Method: as §1
as §2, with “The medium was prepared according to the composition shown in Table 2 below, and the cells were cultured (expanded) until the required level was reached while the medium was replaced every 3 to 4 days.” left out
as §6
as §4, with “AUC. […]” for “AUC.”

LoVo cells = experiment: ATPlite cell viability after oxaliplatin, LoVo cells in organoid culture media
Method: as §1
as §2, with “The medium was prepared according to the composition shown in Table 2 below, and the cells were cultured (expanded) until the required level was reached while the medium was replaced every 3 to 4 days.” left out
as §6
as §4, with “AUC. […]” for “AUC.”

[1] = system: 166T colorectal cancer patient-derived organoids; experiment: Cell viability after oxaliplatin, 2D and 3D culture of patient-derived organoids; details: for cell viability, Ex1 medium compared with control (CRC): FIGS. 26 and 27
Method: as §4
In order to evaluate the difference between 2D culture and 3D culture performed using the above medium compositions, 166T CoLvM patient-derived organoids were cultured under 2D culture conditions and 3D culture conditions.

[2] = system: Sensitive Cell Line (HCT116, RKO, SW620, LS147T); experiment: Average oxaliplatin AUC over sensitive colorectal cancer cell lines
Method: as §4
(§7) As the standard for confirming that cells are sensitive to the drug, the response of the cells to the drug was assumed to be 100%, and the luminescence value of surviving cells after drug treatment was analyzed and compared with the quantified drug response value.
(§8) Based on the assumption that the factor that increases the resistance of the organoids to oxaliplatin is an activator or inhibitor that changes the phenotype, the organoids prepared by excluding some or all of activators and inhibitors as shown in Table 4 below were treated with oxaliplatin.
(§9) In order to confirm reduced resistance to oxaliplatin, ECT116, RKO, SW620, and LS147T cell lines, which are highly sensitive to oxaliplatin, and HT29, HTC15, CoLo205, and Lovo cell lines, which are low sensitive to oxaliplatin, were used.
(§10) When the above results were combined with the results shown by cell lines with high sensitivity to oxaliplatin and cell lines with low sensitivity to oxaliplatin, the result data shown in FIGS. 23 and 24 and Tables 5 to 7 below were obtained.

[3] = system: Resistant Cell Line (HT29, HTC15, CoLo205, Lovo); experiment: Average oxaliplatin AUC over resistant colorectal cancer cell lines
Method: as §4, §7, §8, §9, §10

Total Cell Line = experiment: Average oxaliplatin AUC over all colorectal cancer cell lines
Method: as §4, §7, §8, §9, §10

Question: Which results are given for `O=C1[O][Pt]2([NH][C@@H]3CCCC[C@H]3[NH]2)[O]C1=O` [oxaliplatin]?
Answer: AUC value, Ex1 to Ex4 compared (RKO cells; FIG. 6): the lowest in the organoid culture conditions of Ex2; IC50 value, Ex2 compared with Ex1 (RKO cells; FIG. 7): significantly lower in Ex2 than in Ex1; cell viability versus oxaliplatin concentration (RKO cells; MEM control, Ex1, Ex2, FIG. 8): fastest decrease in cell viability, followed by Ex2; AUC value, Ex2 compared with other organoid culture conditions (SW620 cells; SW620, FIG. 9): lower in the organoid culture conditions of Ex2; AUC value, Ex3 and Ex4 compared with Ex1 (SW620 cells; SW620, FIG. 9): no significant difference in AUC values from Ex1; IC50 value, Ex2 compared with Ex1 (SW620 cells; SW620, FIG. 10): lower in Ex2 than in Ex1; cell viability (SW620 cells; SW620 in Ex2, log [oxaliplatin] value 1, FIG. 11): 50%; AUC value, Ex2 compared with other organoid culture conditions (LS147T cells; FIG. 12): lower in the organoid culture conditions of Ex2; AUC value, Ex3 and Ex4 compared with Ex1 (LS147T cells; FIG. 12): no difference in AUC values from Ex1; IC50 value, Ex2 compared with Ex1 (LS147T cells; FIG. 13): higher in Ex2 than in Ex1; AUC value, Ex1 to Ex4 compared (HT29 cells; HT29, FIG. 15): Ex1 to Ex3 showed similar AUC values, but Ex4 showed slightly lower AUC values than Ex1 to Ex3; cell viability versus oxaliplatin concentration (HT29 cells; HT29 cell line and Ex1 to Ex4, FIG. 16): did not decrease under all the culture conditions; cell viability (HCT15 cells; Ex2 and Ex4, log [oxaliplatin] value 2, FIG. 18): ≥ 50%; AUC value, Ex1 to Ex4 compared (HCT15 cells; FIG. 17): decreased under the organoid culture conditions of Ex2; AUC values of Ex2 to Ex4 compared with Ex1 (CoLo205 cells): higher than that of Ex1; cell viability (LoVo cells; LoVo organoids, log [oxaliplatin] values approaching 2, FIG. 22): ≥ 50%; AUC values of Ex2 to Ex4 compared with Ex1 (LoVo cells; LoVo, FIG. 21): higher than that of Ex1; cell viability, Ex2 medium compared with control ([1]; 2D and 3D culture): cell viabilities similar to those of the control group; cell viability, Ex1 medium compared with control (CRC) ([1]; 2D culture): cell viability similar to that of the control (CRC) cell line; cell viability, Ex1 medium compared with control (CRC) ([1]; 3D culture): higher cell viability than that of the control (CRC) cell line; EX1_AUC ([2]; average over sensitive cell lines, Ex1 medium (inhibitors and activators)): 396.08; EX2_AUC ([2]; average over sensitive cell lines, Ex2 medium (no inhibitors, no activators)): 347.78; normal_AUC ([2]; average over sensitive cell lines, normal cell-line culture): 274.55; sensitivity to oxaliplatin, Ex2 compared with Ex1 ([2]; cell lines with high sensitivity, FIG. 23): higher in Ex2 without both inhibitors and activators than in Ex1; EX1 − EX2 (AUC difference) ([2]; sensitive cell lines): 48.30; EX1_AUC ([3]; average over resistant cell lines, Ex1 medium): 420.02; EX2_AUC ([3]; average over resistant cell lines, Ex2 medium): 420.86; normal_AUC ([3]; average over resistant cell lines, normal cell-line culture): 391.80; sensitivity to oxaliplatin, Ex2 compared with Ex1 ([3]; cell lines with low sensitivity, FIG. 24): no difference in sensitivity to oxaliplatin between Ex1 and Ex2; EX1 − EX2 (AUC difference) ([3]; resistant cell lines): −0.85; EX1_AUC (Total Cell Line; average over total cell lines, Ex1 medium): 408.05; EX2_AUC (Total Cell Line; average over total cell lines, Ex2 medium): 384.32; normal_AUC (Total Cell Line; average over total cell lines, normal cell-line culture): 330.83; EX1 − EX2 (AUC difference) (Total Cell Line; total cell lines): 23.73

Reference: US20250102494A1, “COMPOSITION FOR PREDICTING OXALIPLATIN DRUG EFFICACY, AND USE THEREOF” (SAMSUNG LIFE PUBLIC WELFARE FOUNDATION, priority 2022, published 2025)
